Test results: ChEMBL document CHEMBL3044816, “Mode of Action of Herbicidal N-Benzyl-4-chloro-N-isobutyl-2-pentenamides” (J Pestic Sci, 2002)
Calls of active or inactive are those of the source. The rule behind the calls is not given here.

Experiments:
Echinochloa crus-galli = experiment: Herbicidal activity against Echinochloa crus-galli (barnyard grass) assessed as damage of seedlings; assay type: functional
Scenedesmus acutus [1] = experiment: Phytotoxic activity against Scenedesmus acutus assessed as phytoene accumulation; assay type: functional, organism-based
Scenedesmus acutus [2] = experiment: Phytotoxic activity against Scenedesmus acutus assessed as zeta-carotene accumulation; assay type: functional, organism-based

SMILES: CC(Cl)/C=C/C(=O)N(Cc1ccc(Cl)cc1)CC(C)C (stereo unspecified)
- ED90 (Echinochloa crus-galli): 16 gAi/ha

SMILES: CC(Cl)/C=C/C(=O)N(Cc1ccc(S(C)(=O)=O)cc1)CC(C)C (stereo unspecified)
- ED90 (Echinochloa crus-galli): >1000 gAi/ha

SMILES: CNc1cnn(-c2cccc(C(F)(F)F)c2)c(=O)c1Cl
- Activity (Scenedesmus acutus [1]): Active

SMILES: COc1ccc(C(=O)c2cccc(C)c2)cc1C
- Activity (Scenedesmus acutus [2]): Active

SMILES: CC(Cl)/C=C/C(=O)N(Cc1ccc(C#N)cc1)CC(C)C (stereo unspecified)
- ED90 (Echinochloa crus-galli): 16 gAi/ha

SMILES: CC(Cl)/C=C/C(=O)N(Cc1ccc(C(F)(F)F)cc1)CC(C)C (stereo unspecified)
- ED90 (Echinochloa crus-galli): 31 gAi/ha
